Experimental findings from patent publication US9765074B2, “Inhibitors of the renal outer medullary potassium channel” (Merck Sharp & Dohme Corp., priority 2013, dated 2017) are described below.

What is called IC50 is the midpoint of a concentration-inhibition curve. A low value points to inhibition by little substance.

This test addresses T1, hROMK (hKir1.1) (Homo sapiens, UniProt P48048).
T1 construct: expressed in transfected cells
T1 sequence (P48048 1-391): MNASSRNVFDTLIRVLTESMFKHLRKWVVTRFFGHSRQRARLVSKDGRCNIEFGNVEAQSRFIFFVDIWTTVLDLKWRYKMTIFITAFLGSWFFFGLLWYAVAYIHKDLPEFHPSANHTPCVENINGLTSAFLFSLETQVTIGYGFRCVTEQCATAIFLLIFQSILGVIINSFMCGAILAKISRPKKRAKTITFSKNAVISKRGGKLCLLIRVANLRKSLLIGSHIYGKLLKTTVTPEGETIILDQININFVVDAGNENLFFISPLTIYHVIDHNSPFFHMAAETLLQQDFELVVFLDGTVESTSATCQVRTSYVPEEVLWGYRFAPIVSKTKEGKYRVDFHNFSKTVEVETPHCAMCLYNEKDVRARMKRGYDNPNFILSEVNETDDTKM
As to the kind of experiment: Thallium Flux Assay (ROMK channel functional thallium flux, FLIPR-Tetra). The format is cell-based. As to conditions: HEK293 cells stably expressing hROMK (hKir1.1); 30 min compound incubation. In outline: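 Thallium flux read by FluxOR fluorescence ([…]) for ~10 min after adding 3 mM Tl+/0.3 mM K+ final. Stable HEK-hKir1.1 cells were dye-loaded 90 min, exposed to compound 30 min at room temperature in ouabain/probenecid buffer; IC50 relative to a 3 μM control inhibitor.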
`CC1(C)CC2(CCN(C[C@H](O)c3cnc(-n4cnnn4)cn3)CC2)C(=O)N1C1=CC(=O)OC1` [Example 164, 8-{(2S)-2-hydroxy-2-[5-(1H-tetrazol-1-yl)pyrazin-2-yl]ethyl}-3,3-dimethyl-1-oxo-2-(5-oxo-2,5-dihydrofuran-3-yl)-2-aza-8-azoniaspiro[4.5]decane] returned a half-inhibitory concentration (IC50) of 40 nM. The figure for `CC1=CN(C2=C(C)C(=O)OC2)C(=O)C12CCN(C[C@H](O)c1ccc(-n3cnnn3)nn1)CC2` [Example 166, 8-{(2S)-2-hydroxy-2-[6-(1H-tetrazol-1-yl)pyridazin-3-yl]ethyl}-4-methyl-2-(4-methyl-5-oxo-2,5-dihydrofuran-3-yl)-1-oxo-2-aza-8-azoniaspiro[4.5]dec-3-ene] is 100 nM; for `O=C1C=C(N2C(=O)C3(CCN(C[C@H](O)c4cnc(-n5cnnn5)cn4)CC3)CC23CC3)CO1` [Example 167, 8-{(2S)-2-hydroxy-2-[5-(1H-tetrazol-1-yl)pyrazin-2-yl]ethyl}-12-(5-oxo-2,5-dihydrofuran-3-yl)-8,12-diazadispiro[2.1.5.2]dodecan-11-one] it is 10 nM; for `CC1=CC2(CCN(C[C@H](O)c3ccc(-n4cnnn4)nc3)CC2)C(=O)N1C1=CC(=O)OC1` [Example 174, 8-{(2R)-2-hydroxy-2-[6-(1H-tetrazol-1-yl)pyridin-3-yl]ethyl}-3-methyl-2-(5-oxo-2,5-dihydrofuran-3-yl)-2,8-diazaspiro[4.5]dec-3-en-1-one] it is 20 nM. Compound `CC1=CN(C2=C(C)C(=O)OC2)C(=O)C12CCN(C[C@H](O)c1ccc(-n3cnnn3)nc1)CC2` [Example 175, 8-{(2R)-2-hydroxy-2-[6-(1H-tetrazol-1-yl)pyridin-3-yl]ethyl}-4-methyl-2-(4-methyl-5-oxo-2,5-dihydrofuran-3-yl)-1-oxo-2-aza-8-azoniaspiro[4.5]dec-3-ene] returned an IC50 of 40 nM. On to `CC1=C(N2CCC3(CC4COCC(C3)N4C[C@H](O)c3ccc(-n4cnnn4)nc3)C2=O)COC1=O` (stereo partly drawn) [Example 180, 9-{(2R)-2-hydroxy-2-[6-(1H-tetrazol-1-yl)pyridin-3-yl]ethyl}-1′-(4-methyl-5-oxo-2,5-dihydrofuran-3-yl)-2′H-spiro[7-oxa-9-azabicyclo[3.3.1]nonane-3,3′-pyrrolidin]-2′-one], for which the half-inhibitory concentration (IC50) was 40 nM. In other words, the double-digit nanomolar range. The figure for `CC1=C(N2CCC3(CC4COCC(C3)N4C[C@H](O)c3cnc(-n4cnnn4)cn3)C2=O)COC1=O` (stereo partly drawn) [Example 181, 9-{(2S)-2-hydroxy-2-[5-(1H-tetrazol-1-yl)pyrazin-2-yl]ethyl}-1′-(4-methyl-5-oxo-2,5-dihydrofuran-3-yl)-2′H-spiro[7-oxa-9-azabicyclo[3.3.1]nonane-3,3′-pyrrolidin]-2′-one] is 150 nM. The figure for `COCC1=C(N2CCC3(CCN(C[C@H](O)c4ccc(-n5cnnn5)nc4)CC3)C2=O)COC1=O` [Example 182, 8-{(2R)-2-hydroxy-2-[6-(1H-tetrazol-1-yl)pyridin-3-yl]ethyl}-2-[4-(methoxymethyl)-5-oxo-2,5-dihydrofuran-3-yl]-2,8-diazaspiro[4.5]decan-1-one] is 50 nM. The figure for `CC1=CC2(CCN(C[C@H](O)c3cnc(-n4cnnn4)cn3)CC2)C(=O)N1C1=CC(=O)OC1` [Example 187, 8-{(2S)-2-hydroxy-2-[5-(1H-tetrazol-1-yl)pyrazin-2-yl]ethyl}-3-methyl-2-(5-oxo-2,5-dihydrofuran-3-yl)-2,8-diazaspiro[4.5]dec-3-en-1-one] is 100 nM. `CC1=CC2(CCN(C[C@H](O)c3ccc(-n4cnnn4)nn3)CC2)C(=O)N1C1=CC(=O)OC1` [Example 188, 8-{(2S)-2-hydroxy-2-[6-(1H-tetrazol-1-yl)pyridazin-3-yl]ethyl}-3-methyl-2-(5-oxo-2,5-dihydrofuran-3-yl)-2,8-diazaspiro[4.5]dec-3-en-1-one]: the IC50 came to 50 nM. In the case of `CC1(C)CC2(CCN(C[C@H](O)c3ccc(-n4cnnn4)nn3)CC2)C(=O)N1C1=CC(=O)OC1` [Example 189, 8-{(2S)-2-hydroxy-2-[6-(1H-tetrazol-1-yl)pyridazin-3-yl]ethyl}-3,3-dimethyl-1-oxo-2-(5-oxo-2,5-dihydrofuran-3-yl)-2-aza-8-azoniaspiro[4.5]decane], inhibition was half-maximal at 50 nM (IC50). This lies in the double-digit nanomolar range. The figure for `CC1(C)CC2(CCN(C[C@@H](O)c3ccc(-n4cnnn4)nn3)CC2)C(=O)N1C1=CC(=O)OC1` [Example 190, 8-{(2R)-2-hydroxy-2-[6-(1H-tetrazol-1-yl)pyridazin-3-yl]ethyl}-3,3-dimethyl-1-oxo-2-(5-oxo-2,5-dihydrofuran-3-yl)-2-aza-8-azoniaspiro[4.5]decane] is 50 nM; for `COCC1=C(N2CCC3(CCN(C[C@H](O)c4ccc(-n5cnnn5)nn4)CC3)C2=O)COC1=O` [Example 191, 8-{(2S)-2-hydroxy-2-[6-(1H-tetrazol-1-yl)pyridazin-3-yl]ethyl}-2-[4-(methoxymethyl)-5-oxo-2,5-dihydrofuran-3-yl]-2,8-diazaspiro[4.5]decan-1-one] it is 70 nM. In turn, `COCC1=C(N2CCC3(CCN(C[C@H](O)c4cnc(-n5cnnn5)cn4)CC3)C2=O)COC1=O` [Example 200, 8-{(2S)-2-hydroxy-2-[5-(1H-tetrazol-1-yl)pyrazin-2-yl]ethyl}-2-[4-(methoxymethyl)-5-oxo-2,5-dihydrofuran-3-yl]-2,8-diazaspiro[4.5]decan-1-one] showed an IC50 of 80 nM.

`O=C1C=C(N2C=CC3(CCN(C[C@H](O)c4ccc(-n5cnnn5)nn4)CC3)C2=O)CO1` [Example 201, 8-{(2S)-2-hydroxy-2-[6-(1H-tetrazol-1-yl)pyridazin-3-yl]ethyl}-1-oxo-2-(5-oxo-2,5-dihydrofuran-3-yl)-2-aza-8-azoniaspiro[4.5]dec-3-ene] came in with a concentration for half-maximal inhibition (IC50) of 120 nM. In turn, `CC1=C(N2CCC3(CCN(CCc4ccc(-n5cnnn5)nn4)CC3)C2=O)COC1=O` [Example 232, 8-(2-(6-(1H-Tetrazol-1-yl)pyridazin-3-yl)ethyl)-2-(4-methyl-5-oxo-2,5-dihydrofuran-3-yl)-2,8-diazaspiro[4.5]decan-1-one] returned a 50% inhibitory concentration (IC50) of 10 nM. The figure for `CC1=C(N2CCC3(CCN(CCc4ccc(-n5cnnn5)nc4)CC3)C2=O)COC1=O` [Example 233] is 10 nM; for `CC1=C(N2CCC3(CCN(CCc4cnc(-n5cnnn5)cn4)CC3)C2=O)COC1=O` [Example 234, 2-(4-methyl-5-oxo-2,5-dihydrofuran-3-yl)-1-oxo-8-{2-[5-(1H-tetrazol-1-yl)pyrazin-2-yl]ethyl}-2-aza-8-azoniaspiro[4.5]decane] it is 10 nM. The figure for `CC1=C(N2CCC3(CC4CCC(C3)N4CCc3ccc(-n4cnnn4)nn3)C2=O)COC1=O` [Example 235, (1S,5S)-1′-(4-methyl-5-oxo-2,5-dihydrofuran-3-yl)-2′-oxo-8-{2-[6-(1H-tetrazol-1-yl)pyridazin-3-yl]ethyl}spiro[8-azoniabicyclo[3.2.1]octane-3,3′-pyrrolidine]] is 10 nM; for `CC1=C(N2CCC3(CCN(CCc4nnc(-n5cnnn5)cc4C)CC3)C2=O)COC1=O` [Example 236, 2-(4-methyl-5-oxo-2,5-dihydrofuran-3-yl)-8-{2-[4-methyl-6-(1H-tetrazol-1-yl)pyridazin-3-yl]ethyl}-1-oxo-2-aza-8-azoniaspiro[4.5]decane] it is 4 nM. Compound `CC1=C(N2CCC3(CCN(CCc4cc(C)c(-n5cnnn5)nn4)CC3)C2=O)COC1=O` [Example 237, 2-(4-methyl-5-oxo-2,5-dihydrofuran-3-yl)-8-{2-[5-methyl-6-(1H-tetrazol-1-yl)pyridazin-3-yl]ethyl}-1-oxo-2-aza-8-azoniaspiro[4.5]decane] returned an IC50 of 20 nM. Compared with the last compound, the IC50 is about 5-fold higher. The figure for `CC1=C(N2CCC3(CCN(CCc4ccc(-n5cnnn5)cn4)CC3)C2=O)COC1=O` [Example 238, 2-(4-methyl-5-oxo-2,5-dihydrofuran-3-yl)-1-oxo-8-{2-[5-(1H-tetrazol-1-yl)pyridin-2-yl]ethyl}-2-aza-8-azoniaspiro[4.5]decane] is 10 nM; for `CC1=C(N2CCC3(CC4COCC(C3)N4CCc3ccc(-n4cnnn4)nn3)C2=O)COC1=O` [Example 239, (1R,5S,9r)-1′-(4-methyl-5-oxo-2,5-(dihydrofuran-3-yl)-2′-oxo-9-{2-[6-(1H-tetrazol-1-yl)pyridazin-3-yl]ethyl}spiro[7-oxa-9-azoniabicyclo[3.3.1]nonane-3,3′-pyrrolidine]] it is 320 nM; for `C[C@H]1CC2(CCN(CCc3cnc(-n4cnnn4)cn3)CC2)C(=O)N1C1=CC(=O)OC1` [Example 246, 3(S)-methyl-1-oxo-2-(5-oxo-2,5-dihydrofuran-3-yl)-8-{2-[5-(1H-tetrazol-1-yl)pyrazin-2-yl]ethyl}-2-aza-8-azoniaspiro[4.5]decane] it is 20 nM.

`CC1=C(N2C=CC3(CCN(CCc4ccc(-n5cnnn5)nn4)CC3)C2=O)COC1=O` [Example 247, 2-(4-methyl-5-oxo-2,5-dihydrofuran-3-yl)-1-oxo-8-{2-[6-(1H-tetrazol-1-yl)pyridazin-3-yl]ethyl}-2-aza-8-azoniaspiro[4.5]dec-3-ene] had an IC50 of 20 nM. That is a double-digit nanomolar value. `CC1=C(N2C=CC3(CCN(CCc4nnc(-n5cnnn5)cc4C)CC3)C2=O)COC1=O` [Example 248, 2-(4-methyl-5-oxo-2,5-dihydrofuran-3-yl)-8-{2-[4-methyl-6-(1H-tetrazol-1-yl)pyridazin-3-yl]ethyl}-1-oxo-2-aza-8-azoniaspiro[4.5]dec-3-ene] showed an IC50 of 20 nM.
